Laboratory results: US12410160B2 (Gilead Sciences, Inc., priority 2021, dated 2025)
Read-outs that look alike come from different tables or passages of the source.

Experiments:
[1] = target: human OATP1B1 (Homo sapiens (Human), UniProt Q9Y6L6); test: In Vitro Inhibition Assessment with Human OATP1B1 Transporter; assay type: in vitro ADME; conditions: HEK293-OATP1B1 cells, probe substrate pravastatin
Protocol: In Vitro Inhibition Assessment with Human OATP1B1 and OATP1B3 Transporters Assay Protocol
The purpose of this assay was to assess the inhibition potential of test article (TA) toward human OATP1B1 and OATP1B3 transporters in vitro using cell lines transfected with the individual transporters. The assays used clinically relevant probe substrate pravastatin and a known positive control inhibitor rifampicin. HEK293 mock, HEK293-OATP1B1, and HEK293-OATP1B3 transfected cells were seeded onto CellCoat Poly-D-Lysine coated 96 well black cell culture plates with clear bottoms (Greiner bio-one, Cat. #655946) at a density of 70,000 cells/well and cultured to confluency overnight. Seeding media used was Dulbecco's Modification of Eagle's Medium (DMEM—with GlutaMAX high glucose; Gibco, Cat #: 10569-010) supplemented with 10% fetal bovine serum, 0.1 mM non-essential amino acids, 100 U/mL penicillin, and 100 μg/mL streptomycin. On assay day, media were removed from the assay plates and cells were washed with Hanks' Balanced Salt Solution (HBSS Buffer) (Corning, Cat. #21-023-CV). All TAs and reference inhibitor were serially diluted in DMSO to create spiking solutions at concentrations of 250-fold of final assay concentrations (final DMSO content 0.4%). Cells were preincubated with HBSS buffer containing test compounds for 15 minutes. After the removal of HBSS buffer, dose solution containing TA or reference inhibitor and probe substrate were added to the HEK293-OATP1B1, HEK-293-OATP1B3 and its associated mock cell plate, respectively. The co-incubation period of TAs with the corresponding probe substrate for all plates was 5 minutes. An aliquot of the dose solution was removed from the HEK293 mock cell plates and analysed for dose recovery. Cells were then washed three times with ice cold HBSS buffer and then immediately extracted with methanol:water (70:30 v:v) containing internal standard labetolol (30 nM). The supernatants were evaporated to dryness on injection plates and reconstituted in 80% water containing 20% acetonitrile and 0.1% formic acid for analysis by liquid chromatography with tandem mass spectrometry (LC-MS-MS).
Fractional transport activities were calculated from the equation: Activity %=(A−B)/(C−D)×100
• A: translocated amount of substrate in the presence of TA on transfected cells • B: translocated amount of substrate in the presence of TA on Mock cells • C: translocated amount of substrate in the presence of solvent on transfected cells • D: translocated amount of substrate in the presence of solvent on Mock cells
GraphPad Prism 7.0 (GraphPad Software Inc., San Diego, CA) was used for curve fitting and determination of reaction parameters. In uptake transporter inhibition assays, the IC50 (μM) was calculated, where applicable. IC50 was defined as the concentration of TA required to inhibit maximal activity by 50%.

[2] = target: human KHK-A (Homo sapiens (Human), UniProt P50053); test: KHK Biochemical Assay (IC50), ADP-Glo, KHK-A; conditions: average of at least two separate assays
Method in brief: (§1)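 His-tagged enzyme expressed in BL21 (DE3), Ni-NTA purified. Compounds, serially diluted 1:3 in DMSO, pre-incubated 30 min with enzyme in 50 mM Hepes pH 7.4, 140 mM KCl, 5 mM MgCl2, 0.01% Triton-X, then ATP and fructose added; 4 h at room temperature. ADP formation read by ADP-Glo luminescence.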

[3] = tested on: HepG2 cells; test: F1P Cell-Based Assay (EC50), 13C6-fructose-1-phosphate in HepG2 cells (cell culture medium or 50% human plasma)
[4] = target: human KHK-C (Homo sapiens (Human), UniProt P50053); test: KHK Biochemical Assay (IC50), ADP-Glo, KHK-C; conditions: average of at least two separate assays
Method in brief: as §1

[5] = target: KHK-C expressed in NRK-52E cells (Homo sapiens (Human), UniProt P50053); test: KHK-C Cell-based Assay (EC50), NRK CTG, fructose-mediated ATP-depletion
Protocol: Compounds were tested in a high-throughput 384-well assay format for their ability to attenuate fructose-mediated ATP-depletion in Normal Rat Kidney epithelial cells (NRK-52E) using the Cell-Titer Glo (CTG) assay, which measures cellular ATP levels based on luminescence signal by using the luciferase-luciferin system. Compounds were serially diluted (1:3) in DMSO.
The plates were incubated at 37° C., 5% CO2 for one day. Cells were then transduced on day 2 with 200 MOI of Adenovirus (VQAd KHKC C-(K)-DYK ViraQuest Inc.) using the same medium and method as day-1 to induce KHK-C expression in the cells. Cells were incubated at 37° C., 5% CO2 for one day. On day-3, the medium was changed to DMEM medium (Corning, Catalog #10-014-CM) with 0.5% FBS and Penicillin-Streptomycin after washing the cells twice with sterile PBS on the BioTEK EL406 washer and dispenser. Test compounds were then diluted 200-fold into the assay plates using the BioMek FX and were incubated for 1 hour at 37° C., 5% CO2. 25 mM (final concentration) of fructose was then dispensed into the plates using the BioTEK EL406 dispenser and the plates were incubated at 37° C., 5% CO2 for 48 hours before addition of CTG reagent and measurement of luminescence signal.

[6] = Homo sapiens, HepG2, HepG2 cells, 50% human plasma, read-out: F1P 50% HP EC50
[7] = Homo sapiens, HepG2, read-out: F1P 10% FBS EC50, HepG2 cells, cell culture medium (10% FBS)

Sequence of human OATP1B1 (Q9Y6L6 whole entry): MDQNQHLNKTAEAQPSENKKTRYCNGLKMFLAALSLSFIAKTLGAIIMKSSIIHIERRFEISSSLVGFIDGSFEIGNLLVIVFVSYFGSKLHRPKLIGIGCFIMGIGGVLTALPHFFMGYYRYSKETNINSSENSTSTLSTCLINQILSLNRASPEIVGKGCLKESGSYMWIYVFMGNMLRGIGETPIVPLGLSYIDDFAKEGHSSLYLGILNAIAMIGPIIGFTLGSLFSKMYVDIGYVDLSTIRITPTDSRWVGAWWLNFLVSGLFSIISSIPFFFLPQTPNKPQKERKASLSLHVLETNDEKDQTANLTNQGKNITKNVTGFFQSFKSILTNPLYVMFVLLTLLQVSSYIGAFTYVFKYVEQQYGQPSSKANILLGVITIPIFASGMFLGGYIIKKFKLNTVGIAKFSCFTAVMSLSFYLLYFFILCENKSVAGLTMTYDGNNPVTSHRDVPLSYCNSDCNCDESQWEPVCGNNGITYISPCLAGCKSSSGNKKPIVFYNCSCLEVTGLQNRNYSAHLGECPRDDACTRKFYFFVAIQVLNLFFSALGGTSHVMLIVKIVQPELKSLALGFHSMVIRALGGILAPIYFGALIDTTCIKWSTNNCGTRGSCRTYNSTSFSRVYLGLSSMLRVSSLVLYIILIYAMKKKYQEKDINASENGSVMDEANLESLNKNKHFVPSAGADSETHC
Sequence of KHK-C expressed in NRK-52E cells (P50053 whole entry): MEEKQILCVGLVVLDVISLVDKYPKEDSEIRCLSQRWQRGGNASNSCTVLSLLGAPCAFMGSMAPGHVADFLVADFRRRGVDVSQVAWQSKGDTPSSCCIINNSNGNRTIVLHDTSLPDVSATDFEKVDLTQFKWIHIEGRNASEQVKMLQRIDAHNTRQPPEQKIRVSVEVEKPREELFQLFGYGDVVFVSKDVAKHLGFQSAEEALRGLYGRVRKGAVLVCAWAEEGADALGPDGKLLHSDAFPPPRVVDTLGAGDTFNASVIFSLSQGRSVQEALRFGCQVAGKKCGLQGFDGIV
Sequence of human KHK-C (P50053 whole entry): as above
Sequence of human KHK-A (P50053 other isoform, or with tags, fused parts or gaps): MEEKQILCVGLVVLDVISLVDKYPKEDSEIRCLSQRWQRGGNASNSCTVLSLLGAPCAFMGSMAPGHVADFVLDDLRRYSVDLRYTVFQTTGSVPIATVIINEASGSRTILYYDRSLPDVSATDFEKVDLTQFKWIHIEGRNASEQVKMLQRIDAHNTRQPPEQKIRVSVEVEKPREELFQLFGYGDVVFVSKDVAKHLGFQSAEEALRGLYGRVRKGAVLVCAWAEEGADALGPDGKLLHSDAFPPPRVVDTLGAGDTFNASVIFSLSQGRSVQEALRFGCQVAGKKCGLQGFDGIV

Row | IC50 [1] [µM] | IC50 ([2]; ADP-Glo) [µM] | EC50 [3, 6] [µM] | EC50 [3, 7] [µM] | IC50 ([4]; ADP-Glo) [µM] | EC50 [5] [µM] | IC50 [2] [µM] | IC50 [4] [µM] | EC50 ([3]; HepG2 cells, 50% human plasma, read-out: F1P 50% HP EC50) [µM] | EC50 ([3]; read-out: F1P 10% FBS EC50, HepG2 cells, cell culture medium (10% FBS)) [µM] | EC50 ([5]; read-out: NRK CTG EC50, NRK-52E cells, Cell-Titer Glo, 25 mM fructose) [µM] | SMILES
1 | 0.16 | 0.006 | 0.311 | 0.0357 | 0.0033 | 0.037 |  |  |  |  |  | C[C@H]1CCN1c1nc2c(c(-c3cccc([C@H]4C[C@@H]4C(=O)O)c3)n1)CCC2 (single isomer, unassigned) [Example 89]
2 | 3.71 |  | 0.0666 | 0.0284 | 0.0143 | 0.0886 |  |  |  |  |  | COc1cc(-c2nc(N3C[C@@H](O)[C@@H]3C)nc3c2CCC3(F)F)ccc1C(N)=O [Example 177, 4-(7,7-difluoro-2-((2S,3R)-3-hydroxy-2-methylazetidin-1-yl)-6,7-dihydro-5H-cyclopenta[d]pyrimidin-4-yl)-2-methoxybenzamide]
3 | 1.35 |  | 0.041 | 0.0221 | 0.0054 | 0.0274 |  |  |  |  |  | C[C@H]1[C@H](O)CN1c1nc(-c2ccc3c(c2)CCCNC3=O)c2c(n1)C(F)(F)CC2 [Example 178, 7-(7,7-difluoro-2-((2S,3R)-3-hydroxy-2-methylazetidin-1-yl)-6,7-dihydro-5H-cyclopenta[d]pyrimidin-4-yl)-2,3,4,5-tetrahydro-1H-benzo[c]azepin-1-one]
4 | 5.92 | 0.0655 | 0.191 | 0.12 | 0.0516 | 0.379 |  |  |  |  |  | C[C@H]1[C@H](O)CN1c1nc2c(c(-c3ccc(C(N)=O)cc3)n1)CCC2 [Example 197, 4-[2-[(2S,3R)-3-hydroxy-2-methyl-azetidin-1-yl]-6,7-dihydro-5H-cyclopenta[d]pyrimidin-4-yl]benzamide]
5 | 0.1 |  | 0.0851 | 0.0109 | 0.0015 | 0.003 |  |  |  |  |  | C[C@H]1CCN1c1nc2c(c(-c3cc4cc[nH]c(=O)c4s3)n1)CCC2 [Example 392, 2-[2-[(2S)-2-methylazetidin-1-yl]-6,7-dihydro-5H-cyclopenta[d]pyrimidin-4-yl]-6H-thieno[2,3-c]pyridin-7-one]
6 | 1.36 |  | 0.0463 | 0.0073 |  | 0.15 |  | 0.0039 |  |  |  | C[C@H]1CCN1c1nc2c(c(-c3ccc4nc(N)[nH]c(=O)c4c3)n1)CCC2 [Example 463, (S)-2-amino-6-(2-(2-methylazetidin-1-yl)-6,7-dihydro-5H-cyclopenta[d]pyrimidin-4-yl)quinazolin-4(3H)-one]
7 | > 40 |  | 0.0551 | 0.0458 |  | 0.055 |  | 0.0157 |  |  |  | C[C@H]1[C@H](O)CN1c1nc(-c2cccc(S(C)(=N)=O)c2)c2c(n1)C(F)(F)CC2 (stereo partly drawn) [Example 464]
8 | 22.5 |  | 0.0024 | 0.0011 |  | 0.0041 |  | 0.0009 |  |  |  | C[C@H]1CCN1c1nc(-c2ccc3c(c2)CCNC3)c2c(n1)C(F)(F)CC2 [Example 642, 6-[7,7-difluoro-2-[(2S)-2-methylazetidin-1-yl]-5,6-dihydrocyclopenta[d]pyrimidin-4-yl]-1,2,3,4-tetrahydroisoquinoline]
9 | 19.1 |  | 0.0184 | 0.0067 |  | 0.0031 |  | 0.0008 |  |  |  | C[C@H]1CCN1c1nc(-c2ccc(C3(N)CS(=O)(=O)C3)cc2)c2c(n1)C(F)(F)CC2 [Example 769, (S)-3-amino-3-(4-(7,7-difluoro-2-(2-methylazetidin-1-yl)-6,7-dihydro-5H-cyclopenta[d]pyrimidin-4-yl)phenyl)thietane 1,1-dioxide]

Second part, the compound before the results:

Row | SMILES | IC50 [1] [µM] | IC50 ([2]; ADP-Glo) [µM] | EC50 [3, 6] [µM] | EC50 [3, 7] [µM] | IC50 ([4]; ADP-Glo) [µM] | EC50 [5] [µM] | IC50 [2] [µM] | IC50 [4] [µM] | EC50 ([3]; HepG2 cells, 50% human plasma, read-out: F1P 50% HP EC50) [µM] | EC50 ([3]; read-out: F1P 10% FBS EC50, HepG2 cells, cell culture medium (10% FBS)) [µM] | EC50 ([5]; read-out: NRK CTG EC50, NRK-52E cells, Cell-Titer Glo, 25 mM fructose) [µM]
10 | C[C@H]1[C@H](O)CN1c1nc(-c2ccc3c(c2)CC[C@@]32COC(=O)N2)c2c(n1)C(F)(F)CC2 (single isomer, unassigned) [Example 476] | 5.98 |  | 0.0375 | 0.0235 |  | 0.0095 | 0.0109 | 0.0002 |  |  | 
11 | C[C@H]1[C@H](O)CN1c1nc(-c2ccc3c(c2)OC[C@@]32COC(=O)N2)c2c(n1)C(F)(F)CC2 (single isomer, unassigned) [Example 483] | 17.4 |  | 0.0184 | 0.0053 |  | 0.0054 | 0.0046 | 0.0002 |  |  | 
12 | C[C@H]1[C@H](O)CN1c1nc(-c2ccc3c(c2)OC[C@@]32COCC(=O)N2)c2c(n1)C(F)(F)CC2 (single isomer, unassigned) [Example 499] | 24.3 |  |  |  |  |  | 0.0024 | 0.0002 | 0.0064 | 0.003 | 0.0016
13 | C[C@H]1[C@H](O)CN1c1nc(-c2ccc(C(N)=O)cc2)c2c(n1)C(F)(F)CC2 [Example 129, 4-(7,7-difluoro-2-((2S,3R)-3-hydroxy-2-methylazetidin-1-yl)-6,7-dihydro-5H-cyclopenta[d]pyrimidin-4-yl)benzamide] | 13.2 | 0.014 | 0.0367 | 0.0188 | 0.0064 | 0.0808 |  |  |  |  | 
14 | C[C@H]1[C@H](O)CN1c1nc(-c2ccc3c(=O)[nH]ccc3c2)c2c(n1)C(F)(F)CC2 [Example 318, 6-(7,7-difluoro-2-((2S,3R)-3-hydroxy-2-methylazetidin-1-yl)-6,7-dihydro-5H-cyclopenta[d]pyrimidin-4-yl)isoquinolin-1(2H)-one] | 0.35 | 0.006 | 0.0161 | 0.0093 | 0.0016 | 0.0091 |  |  |  |  | 
15 | C[C@H]1[C@H](O)CN1c1nc(-c2cccc(CNS(C)(=O)=O)c2)c2c(n1)C(F)(F)CC2 [Example 324, N-(3-(7,7-difluoro-2-((2S,3R)-3-hydroxy-2-methylazetidin-1-yl)-6,7-dihydro-5H-cyclopenta[d]pyrimidin-4-yl)benzyl)methanesulfonamide] | 5.8 | 0.0066 | 0.0599 | 0.019 | 0.0083 | 0.0723 |  |  |  |  | 
16 | C[C@H]1[C@H](O)CN1c1nc(-c2cccc(CN(C)S(C)(=O)=O)c2)c2c(n1)C(F)(F)CC2 [Example 462, N-(3-(7,7-difluoro-2-((2S,3R)-3-hydroxy-2-methylazetidin-1-yl)-6,7-dihydro-5H-cyclopenta[d]pyrimidin-4-yl)benzyl)-N-methylmethanesulfonamide] | 2.76 |  | 0.0337 | 0.0096 |  | 0.0092 |  | 0.0032 |  |  | 
17 | C[C@H]1[C@H](O)CN1c1nc(-c2ccc3c(c2)O[C@H](CO)CNC3=O)c2c(n1)C(F)(F)CC2 [Example 705, (S)-8-(7,7-difluoro-2-((2S,3R)-3-hydroxy-2-methylazetidin-1-yl)-6,7-dihydro-5H-cyclopenta[d]pyrimidin-4-yl)-2-(hydroxymethyl)-3,4-dihydrobenzo[f][1,4]oxazepin-5(2H)-one] | 8.91 |  | 0.0552 | 0.0524 |  | 0.63 |  | 0.0032 |  |  | 
18 | C[C@H]1[C@H](O)CN1c1nc(-c2cc(F)c3c(c2)OCCNC3=O)c2c(n1)C(F)(F)CC2 [Example 746, 8-[7,7-difluoro-2-[(2S,3R)-3-hydroxy-2-methyl-azetidin-1-yl]-5,6-dihydrocyclopenta[d]pyrimidin-4-yl]-6-fluoro-3,4-dihydro-2H-1,4-benzoxazepin-5-one] | 1.07 |  | 0.0768 | 0.0492 |  | 0.108 | 0.0467 | 0.0074 |  |  | 
